# According to US20250332300A1 (priority 2024, published 2025):
# Counter-ions that a name gives are not always drawn. Like-named read-outs stand apart in the source and are kept apart here. Starred links: 1 amine or outer side, 2 acyl side, 3 side chain; linkers in the order of their positions; H or OH if unused. Positions of bridges follow the written chain, without caps; N, C: chain ends. Non-standard residues stand in square brackets, D forms with d. Residues, ends and D or L forms follow the SMILES beside them. *: point of attachment. DOTA = O=C(O)CN1CCN(CC(=O)O)CCN(CC(=O)*)CCN(CC(=O)O)CC1; Trp(5-OH) = N[C@@H](Cc1c[nH]c2ccc(O)cc12)C(=O)O; NMePhe(4-F) = CN[C@@H](Cc1ccc(F)cc1)C(=O)O; X2 = O=C([C@H](Cc1ccc(O)nc1)N[*:1])[*:2]; NMehPhe = CN[C@@H](CCc1ccccc1)C(=O)O; X3 = NC[C@H](CCC(=O)[*:2])C(=O)[*:1]; Aad = N[C@@H](CCCC(=O)O)C(=O)O; Gly(cPr) = N[C@H](C(=O)O)C1CC1; NMeK = CN[C@@H](CCCCN)C(=O)O; NMeDap = CN[C@@H](CN)C(=O)O; NMeS = CN[C@@H](CO)C(=O)O
# How the values were obtained:
# Assay type in all cases: binding
# [1] = molecular target: T1, mouse HER2 (23-653) (Mus musculus, UniProt P70424); assay: TR-FRET competition assay for peptide potency, mouse HER2; set-up: mouse HER2 (23-653) using a Cy5 labeled peptide as a probe; made in house; host or cells: mammalian cells; settings: 0.1 nM mouse HER2, 24 h incubation
# [2] = molecular target: T1, mouse HER2 (23-653); assay: Surface plasmon resonance (SPR) for assessment of peptide affinity, mouse HER2; set-up: mouse HER2 (23-653) using a Cy5 labeled peptide as a probe; made in house
# From the text: Each protein was immobilized either onto a SA sensorchip (Cytiva, BR-1005-31) or CM5 sensorchip (Cytiva, BR-1005-30) to a density of 800-2000 RU.
# [3] = molecular target: T2, human HER2 (23-652) (Homo sapiens, UniProt P04626); assay: Surface plasmon resonance (SPR) for assessment of peptide affinity, human HER2; set-up: towards human HER2 (23-652) and mouse HER2 (23-653); made in house
# Procedure, shortened: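 Binding kinetics fitted from sensorgrams with 280 s peptide association then 3000 s dissociation (30 uL/min), using HER2 (23-652) either directly immobilized (SA/CM5) or anti-Fc-captured; 3 M magnesium chloride used for regeneration.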
# [4] = molecular target: T2, human HER2 (23-652); assay: TR-FRET competition assay for peptide potency, human HER2; set-up: towards human HER2 (23-652) and mouse HER2 (23-653); made in house; host or cells: mammalian cells
# [5] = TR-FRET competition with Cy5 labeled peptide probe, read-out: moHER2 TR-FRET IC50
# [6] = SPR, mouse HER2 extracellular domain, 25° C., 1:1 binding model, read-out: moHER2-SPR-ONC KD
# [7] = SPR, human HER2 extracellular domain, 25° C., 1:1 binding model, read-out: huHER2-SPR-ONC KD
# [8] = huHER2 TR-FRET IC50, TR-FRET competition with Cy5 labeled peptide probe, 0.1 nM human HER2, 24 h incubation
"IC50 [1, 5] [nM]","Kd [2, 6] [nM]","Kd [3, 7] [nM]","IC50 ([4]; TR-FRET competition with Cy5 labeled peptide probe, 0.1 nM human HER2, 24 h incubation, read-out: huHER2 TR-FRET IC50) [nM]",IC50 ([4]; read-out: huHER2 TR-FRET IC50) [nM],Compound,Kd [3] [nM],"IC50 [4, 8] [nM]","IC50 ([1]; moHER2 TR-FRET IC50, TR-FRET competition with Cy5 labeled peptide probe) [nM]",Kd [2] [nM]
0.1,< 0.1,< 0.1,< 0.1,,CC(=O)NCCCC[C@H]1C(=O)N[C@@H](Cc2c[nH]c3ccc(O)cc23)C(=O)N[C@@H](Cc2c[nH]c3ccccc23)C(=O)N[C@@H](C2CC2)C(=O)N(C)[C@H](C(=O)N(C)[C@@H](Cc2ccc(F)cc2)C(=O)N[C@@H](CCCCNC(=O)CN2CCN(CC(=O)O)CCN(CC(=O)O)CCN(CC(=O)O)CC2)C(N)=O)CNC(=O)CCC[C@H](NC(=O)CCC(=O)O)C(=O)N[C@@H](Cc2ccc(O)cc2)C(=O)N[C@@H](CO)C(=O)N(C)[C@@H](CCc2ccccc2)C(=O)N1C [Example C11],,,,
> 1000,> 6000,> 6000,,> 900,"CC(=O)NCCCC[C@H]1C(=O)N[C@@H](Cc2c[nH]c3ccc(O)cc23)C(=O)N[C@@H](C)C(=O)N[C@@H](C2CC2)C(=O)N(C)[C@H](C(=O)N(C)[C@@H](Cc2ccc(F)cc2)C(=O)N[C@@H](CCCCN)C(N)=O)CNC(=O)CCC[C@H](NC(C)=O)C(=O)N[C@@H](Cc2ccc(O)cc2)C(=O)N[C@@H](CO)C(=O)N(C)[C@@H](CCc2ccccc2)C(=O)N1C [Example A45, (3S,6S,9S,12S,15S,18S,21S,24S,27S)-27-acetamido-15-(4-acetamidobutyl)-6-cyclopropyl-N-((S)-1-(((S)-1,6-diamino-1-oxohexan-2-y1)amino)-3-(4-fluorophenyl)-1-oxopropan-2-y1)-12-((5-hydroxy-1H-indol-3-yl)methyl)-24-(4-hydroxybenzyl)-21-(hydroxymethyl)-N,4,9,16,19-pentamethyl-5,8,11,14,17,20,23,26,31-nonaoxo-18-phenethyl-1,4,7,10,13,16,19,22,25-nonaazacyclohentriacontane-3-carboxamide TFA salt] (Ac-[Aad]YS[NMehPhe][NMeK](Ac)[Trp(5-OH)]A[Gly(cPr)][NMeDap][NMePhe(4-F)]K-NH2; lactam 1-9)",,,,
224,98,97,,111,"CC(=O)N[C@H]1CCC(=O)NC[C@@H](C(=O)N(C)[C@@H](Cc2ccc(F)cc2)C(N)=O)N(C)C(=O)[C@H](C2CC2)NC(=O)[C@H](Cc2c[nH]c3ccccc23)NC(=O)[C@H](Cc2c[nH]c3ccc(O)cc23)NC(=O)[C@H](CO)N(C)C(=O)[C@H](CCc2ccccc2)N(C)C(=O)[C@H](CO)NC(=O)[C@H](Cc2ccc(O)nc2)NC1=O [Example A1, (3S,6S,9S,12S,15S,18S,21S,24S,27S)-9-((1H-indol-3-yl)methyl)-27-acetamido-N—((S)-1-amino-3-(4-fluorophenyl)-1-oxopropan-2-yl)-6-cyclopropyl-12-((5-hydroxy-1H-indol-3-yl)methyl)-15,21-bis(hydroxymethyl)-24-((6-hydroxypyridin-3-yl)methyl)-N,4,16,19-tetramethyl-5,8,11,14,17,20,23,26,30-nonaoxo-18-phenethyl-1,4,7,10,13,16,19,22,25-nonaazacyclotriacontane-3-carboxamide] (Ac-E[X2]S[NMehPhe][NMeS][Trp(5-OH)]W[Gly(cPr)][NMeDap][NMePhe(4-F)]-NH2; lactam 1-9)",,,,
0.3,0.2,0.4,,0.3,"CC(=O)NCCCC[C@H]1C(=O)N[C@@H](Cc2c[nH]c3ccc(O)cc23)C(=O)N[C@@H](Cc2c[nH]c3ccccc23)C(=O)N[C@@H](C2CC2)C(=O)N(C)[C@H](C(=O)N(C)[C@@H](Cc2ccc(F)cc2)C(=O)N2CCC[C@H]2C(N)=O)CNC(=O)CCC[C@H](NC(C)=O)C(=O)N[C@@H](Cc2ccc(O)cc2)C(=O)N[C@@H](CO)C(=O)N(C)[C@@H](CCc2ccccc2)C(=O)N1C [Example A2, (3S,6S,9S,12S,15S,18S,21S,24S,27S)-9-((1H-indol-3-yl)methyl)-27-acetamido-15-(4-acetamidobutyl)-N-((S)-1-((S)-2-carbamoylpyrrolidin-1-yl)-3-(4-fluorophenyl)-1-oxopropan-2-yl)-6-cyclopropyl-12-((5-hydroxy-1H-indol-3-yl)methyl)-24-(4-hydroxybenzyl)-21-(hydroxymethyl)-N,4,16,19-tetramethyl-5,8,11,14,17,20,23,26,31-nonaoxo-18-phenethyl-1,4,7,10,13,16,19,22,25-nonaazacyclohentriacontane-3-carboxamide]",,,,
> 1000,> 6000,> 6000,,> 1000,"CC(=O)N[C@H]1CCC(=O)NC[C@@H](C(=O)N(C)[C@@H](Cc2ccc(F)cc2)C(N)=O)N(C)C(=O)[C@H](C2CC2)NC(=O)[C@H](Cc2c[nH]c3ccccc23)NC(=O)[C@H](Cc2cnn3ccccc23)NC(=O)[C@H](CO)N(C)C(=O)[C@H](CCc2ccccc2)N(C)C(=O)[C@H](CO)NC(=O)[C@H](Cc2ccc(O)cc2)NC1=O [Example A16, (3S,6S,9S,12S,15S,18S,21S,24S,27S)-9-((1H-indol-3-yl)methyl)-27-acetamido-N-((S)-1-amino-3-(4-fluorophenyl)-1-oxopropan-2-yl)-6-cyclopropyl-24-(4-hydroxybenzyl)-15,21-bis(hydroxymethyl)-N,4,16,19-tetramethyl-5,8,11,14,17,20,23,26,30-nonaoxo-18-phenethyl-12-(pyrazolo[1,5-a]pyridin-3-ylmethyl)-1,4,7,10,13,16,19,22,25-nonaazacyclotriacontane-3-carboxamide]",,,,
,,,,,"CN1C(=O)[C@H](CO)NC(=O)[C@H](Cc2ccc(O)cc2)NC(=O)[C@H](CN)CCC(=O)NC[C@@H](C(=O)N(C)[C@@H](Cc2ccc(F)cc2)C(N)=O)N(C)C(=O)[C@H](C2CC2)NC(=O)[C@H](Cc2c[nH]c3ccccc23)NC(=O)[C@H](Cc2c[nH]c3ccc(O)cc23)NC(=O)[C@H](CO)N(C)C(=O)[C@@H]1CCc1ccccc1 [Example A39, (3S,6S,9S,12S,15S,18S,21S,24S,27S)-9-((1H-indol-3-yl)methyl)-N-((S)-1-amino-3-(4-fluorophenyl)-1-oxopropan-2-yl)-27-(aminomethyl)-6-cyclopropyl-12-((5-hydroxy-1H-indol-3-yl)methyl)-24-(4-hydroxybenzyl)-15,21-bis(hydroxymethyl)-N,4,16,19-tetramethyl-5,8,11,14,17,20,23,26,30-nonaoxo-18-phenethyl-1,4,7,10,13,16,19,22,25-nonaazacyclotriacontane-3-carboxamide TFA salt] (YS[NMehPhe][NMeS][Trp(5-OH)]W[Gly(cPr)][NMeDap][NMePhe(4-F)]-NH2; linker N-8 via X3)",148,129,436,162

Compound,"IC50 [1, 5] [nM]","Kd [2, 6] [nM]","Kd [3, 7] [nM]","IC50 ([4]; TR-FRET competition with Cy5 labeled peptide probe, 0.1 nM human HER2, 24 h incubation, read-out: huHER2 TR-FRET IC50) [nM]",IC50 ([4]; read-out: huHER2 TR-FRET IC50) [nM],Kd [3] [nM],"IC50 [4, 8] [nM]","IC50 ([1]; moHER2 TR-FRET IC50, TR-FRET competition with Cy5 labeled peptide probe) [nM]",Kd [2] [nM]
CC(=O)NCCCC[C@H]1C(=O)N[C@@H](Cc2c[nH]c3ccc(O)cc23)C(=O)N[C@@H](C)C(=O)N[C@@H](C2CC2)C(=O)N(C)[C@H](C(=O)N(C)[C@@H](Cc2ccc(F)cc2)C(=O)N[C@@H](CCCCNC(=O)CN2CCN(CC(=O)O)CCN(CC(=O)O)CCN(CC(=O)O)CC2)C(N)=O)CNC(=O)CCC[C@H](NC(C)=O)C(=O)N[C@@H](Cc2ccc(O)cc2)C(=O)N[C@@H](CO)C(=O)N(C)[C@@H](CCc2ccccc2)C(=O)N1C [Example B3] (Ac-[Aad]YS[NMehPhe][NMeK](Ac)[Trp(5-OH)]A[Gly(cPr)][NMeDap][NMePhe(4-F)]K(DOTA)-NH2; lactam 1-9),> 1000,> 6000,> 6000,,> 1000,,,,
"CC(=O)NCCCC[C@H]1C(=O)N[C@@H](Cc2c[nH]c3ccc(O)cc23)C(=O)N[C@@H](Cc2c[nH]c3ccccc23)C(=O)N[C@@H](C2CC2)C(=O)N(C)[C@H](C(=O)N(C)[C@@H](Cc2ccc(F)cc2)C(=O)N[C@@H](CCCCN)C(N)=O)CNC(=O)CCC[C@H](NC(C)=O)C(=O)N[C@@H](Cc2ccc(O)cc2)C(=O)N[C@@H](CO)C(=O)N(C)[C@@H](CCc2ccccc2)C(=O)N1C [Example A40, TFA salt]",0.2,< 0.1,,,,< 0.1,< 0.1,,
CC(=O)N[C@H]1CCCC(=O)NC[C@@H](C(=O)N(C)[C@@H](Cc2ccc(F)cc2)C(=O)N[C@@H](CCCCNC(=O)CN2CCN(CC(=O)O)CCN(CC(=O)O)CCN(CC(=O)O)CC2)C(N)=O)N(C)C(=O)[C@H]([C@H](C)O)NC(=O)[C@H](Cc2c[nH]c3ccccc23)NC(=O)[C@H](Cc2c[nH]c3ccc(O)cc23)NC(=O)[C@H](CCCCNC(=O)CO)N(C)C(=O)[C@H](CCc2ccccc2)N(C)C(=O)[C@H](CO)NC(=O)[C@H](Cc2ccc(O)cc2)NC1=O [Example B6],1.1,1.2,0.5,,0.3,,,,
